Data as given in patent publication US20180092908A1, “SMALL MOLECULE OXIDIZERS OF PDI AND THEIR USE” (THE TRUSTEES OF COLUMBIA UNIVERSITY IN THE CITY OF NEW YORK, priority 2015, published 2018).
In brackets after ≈: the same amount, converted by molar mass.

Experiments:
[1] = test system: striatal medium spiny neurons (MSNs); assay: HD brain slice assay (mHTT-Q73 transfected corticostriatal explants); format: cell-based; details: rat corticostriatal brain slice explants, YFP + mHTT-Q73, 4 days
Description: Brain slice explants were prepared and transfected as previously described (Reinhart et al., 2011). Briefly, brains were taken from postnatal day 10 CD Sprague-Dawley rat pups and cut into 250 μm coronal slices on a vibratome (Vibratome Co., St. Louis, Mo.). Brain slices containing striatum and cortex were then placed in individual wells of 12-well plates atop culture medium set in 0.5% agarose and maintained at 32° C. under 5% CO2. Co-transfection with YFP and Htt exon-1 containing a 73 polyglutamine repeat was done using a biolistic device (Bio-Rad Helios Gene Gun, Hercules, Calif.). Positive controls were transfected with YFP only or treated with a combination of 50 μM KW-6002 (istradefylline) and 50 μM SP600125. Negative control brain slices were treated with 0.1% DMSO carrier only. Striatal medium spiny neurons (MSNs) expressing YFP were visualized under fluorescence microscopy and identified based on their location within brain slices and their characteristic morphology.
Having elucidated aspects of the biophysical mechanism of action of LOC14 binding to PDI, the next exploration concerned whether LOC14 would be a good candidate for in vivo studies. […] In the absence of LOC14, very few healthy MSNs remained, as assessed by the lack of normal sized and shaped cell bodies, absence of long primary dendrites, and lack of continuous expression of YFP throughout the cell (FIG. 10).

cortical neurons = assay: Tau4R-induced neurodegeneration brain slice assay; format: cell-based; details: rat corticostriatal brain slice, tau4R transfection, 4 days
Description: Rat corticostriatal brain slice explants co-transfected with YFP and the tau isoform with 4 tubulin-binding repeats (Tau4R) were treated with LOC14, an analog of LOC14 “BIT fragment” (1,2,Benzisothiazol-3-one), or DMSO only for 4 days. Data are plotted as mean±SEM from one of five representative experiments. *Significant by ANOVA followed by Dunnett's post hoc comparison test at p<0.05.
Next, whether LOC14 could be neuroprotective in additional models of neurodegenerative diseases was explored. […] In this rat corticostriatal brain slice assay, cortical neuron degeneration is induced by biolistic transfection with tau, in this case a tau isoform with 4 tubulin-binding repeats (“tau4R”) which is implicated in frontotemporal dementias and more broadly in Alzheimer's disease.

[2] = biological target: T1, recombinant catalytic a domain of human PDI A1 (PDIa) (Homo sapiens, UniProt P07237); assay: Insulin aggregation assay (PDIa reductase activity); format: biochemical
T1 construct: made in house; host or cells: Escherichia coli BL21-Gold (DE3)

Solubility = details: DMSO, Table 5
[3] = Mouse plasma stability assay; format: in vitro ADME; details: compound 1.0 μM
Description: Test compound (1 μM) was incubated at 37° C. for up to 120 minutes in mouse plasma. At 0, 15, 30, 60, and 120 minute intervals an 100 μL aliquot was taken and quenched with 200 μL acetonitrile (ACN) containing internal standard. Following completion of the experimentation, the samples were analyzed by LC-MS/MS. The half-life (t1/2) was calculated using the following equation: t1/2=0.693/k, where, k is the elimination rate constant of test compounds obtained by fitting the data to the equation: C=initial×exp (−k×t). Results were reported as peak area ratios of analyte to internal standard.
The microsome stability assay, plasma stability assay, and plasma protein binding assay were each performed by Alliance Pharma, Inc. (Malvern, Pa.).

physchem = details: organic solvent or mixture

T1 sequence (P07237 with tags, fused parts or gaps): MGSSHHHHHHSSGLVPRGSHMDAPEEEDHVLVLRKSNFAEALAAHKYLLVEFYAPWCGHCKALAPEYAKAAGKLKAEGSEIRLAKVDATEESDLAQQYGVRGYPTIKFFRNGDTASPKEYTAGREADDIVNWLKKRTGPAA

SMILES: O=C(C1CC1)N1CCN(Cn2sc3ccccc3c2=O)CC1 [LOC14, 2-((4-(cyclopropanecarbonyl)piperazin-1-yl)methyl)benzo[d]isothiazol-3(2H)-one]
- rescue of MSNs from mutant huntingtin-induced neurodegeneration [1]: rescued MSNs in a concentration-dependent manner
- neuroprotection in tau-mediated neurodegeneration assay (cortical neurons): strongly and reproducibly neuroprotective
- inhibition of PDIa enzymatic activity ([2]; compound 75 μM, PDIa 5 μM): almost completely inhibit
- inhibition of PDI's reduction of insulin without dilution ([2]; compound 750 μM): able to inhibit
- Solubility in DMSO (Solubility): 100 mM in DMSO
- % Remaining after 2-hour incubation [3]: 49.9%
- Elimination rate constant (k) [3]: 0.0049
- half-life at 1 μM ([3]; read-out: Half-life (t1/2) (converted)): 2.4 h
- solubility (physchem; DMSO): 40 mg/mL (≈ 126 mM)
- solubility (physchem; EtOH): 20 mg/mL (≈ 63 mM)
- solubility (physchem; MeOH): 40 mg/mL (≈ 126 mM)
- solubility (physchem; NMP): 80 mg/mL (≈ 252 mM)
